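Five concentrations, 48 hours, 96-well plates. GI50 marks 50% less growth. The concentration for full growth arrest is given as TGI.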
Legend:
Experiment in all cases: NCI tumour cell line growth inhibition, 48 h
SF-268 CNS = tested on: SF-268 CNS
SNB-75 CNS = tested on: SNB-75 CNS
DU-145 prostate = tested on: DU-145 prostate
M14 melanoma = tested on: M14 melanoma
OVCAR-8 ovarian = tested on: OVCAR-8 ovarian
HOP-92 NSCLC = tested on: HOP-92 NSCLC
MALME-3M melanoma = tested on: MALME-3M melanoma
BT-549 breast = tested on: BT-549 breast
UACC-62 melanoma = tested on: UACC-62 melanoma
OVCAR-5 ovarian = tested on: OVCAR-5 ovarian
RPMI-8226 leukemia = tested on: RPMI-8226 leukemia
K-562 leukemia = tested on: K-562 leukemia
SK-MEL-5 melanoma = tested on: SK-MEL-5 melanoma
U251 CNS = tested on: U251 CNS
SW-620 colon = tested on: SW-620 colon
EKVX NSCLC = tested on: EKVX NSCLC
HOP-62 NSCLC = tested on: HOP-62 NSCLC
TK-10 renal = tested on: TK-10 renal
NCI-H460 lung = tested on: NCI-H460 lung
NCI/ADR-RES ovarian = tested on: NCI/ADR-RES ovarian
SR leukemia = tested on: SR leukemia
HCC-2998 colon = tested on: HCC-2998 colon
MDA-MB-435 = tested on: MDA-MB-435
PC-3 prostate = tested on: PC-3 prostate
KM12 colon = tested on: KM12 colon
A549 NSCLC = tested on: A549 NSCLC
LOX IMVI melanoma = tested on: LOX IMVI melanoma
RXF 393 renal = tested on: RXF 393 renal
HS 578T breast = tested on: HS 578T breast
NCI-H226 lung = tested on: NCI-H226 lung
SF-295 CNS = tested on: SF-295 CNS
HCT-116 colon = tested on: HCT-116 colon
MCF7 breast = tested on: MCF7 breast
COLO 205 colon = tested on: COLO 205 colon
A498 renal = tested on: A498 renal
NCI-H23 lung = tested on: NCI-H23 lung
SK-MEL-2 melanoma = tested on: SK-MEL-2 melanoma
SNB-19 CNS = tested on: SNB-19 CNS
UO-31 renal = tested on: UO-31 renal
HL-60(TB) leukemia = tested on: HL-60(TB) leukemia
OVCAR-4 ovarian = tested on: OVCAR-4 ovarian
SK-OV-3 ovarian = tested on: SK-OV-3 ovarian
T-47D breast = tested on: T-47D breast
SF-539 CNS = tested on: SF-539 CNS
CAKI-1 renal = tested on: CAKI-1 renal
HT29 colon = tested on: HT29 colon
OVCAR-3 ovarian = tested on: OVCAR-3 ovarian
ACHN renal = tested on: ACHN renal
SN12C renal = tested on: SN12C renal
NCI-H522 lung = tested on: NCI-H522 lung
SK-MEL-28 melanoma = tested on: SK-MEL-28 melanoma
MDA-MB-231 breast = tested on: MDA-MB-231 breast
CCRF-CEM leukemia = tested on: CCRF-CEM leukemia
786-0 renal = tested on: 786-0 renal
MOLT-4 leukemia = tested on: MOLT-4 leukemia
HCT-15 colon = tested on: HCT-15 colon

Cc1ccc(N(CC(=O)Nc2ccc(S(=O)(=O)NC3CCN(C)CC3)cc2)S(=O)(=O)c2ccc(Cl)cc2)cc1
GI50 (SF-268 CNS): 2.67 µM
TGI (SF-268 CNS): 8.26 µM
GI50 (SNB-75 CNS): 2.95 µM
TGI (SNB-75 CNS): 15.7 µM
GI50 (DU-145 prostate): 3.27 µM
TGI (DU-145 prostate): 11.2 µM
GI50 (M14 melanoma): 1.79 µM
TGI (M14 melanoma): 3.42 µM
GI50 (OVCAR-8 ovarian): 3.61 µM
TGI (OVCAR-8 ovarian): 12.1 µM
GI50 (HOP-92 NSCLC): 1.86 µM
TGI (HOP-92 NSCLC): 8.64 µM
GI50 (MALME-3M melanoma): 1.72 µM
TGI (MALME-3M melanoma): 3.65 µM
GI50 (BT-549 breast): 12.6 µM
TGI (BT-549 breast): 27.8 µM
GI50 (UACC-62 melanoma): 1.74 µM
TGI (UACC-62 melanoma): 3.59 µM
GI50 (OVCAR-5 ovarian): 4.04 µM
TGI (OVCAR-5 ovarian): 17.1 µM
GI50 (RPMI-8226 leukemia): 2.71 µM
TGI (RPMI-8226 leukemia): 7.89 µM
GI50 (K-562 leukemia): 2.23 µM
TGI (K-562 leukemia): 5 µM
GI50 (SK-MEL-5 melanoma): 1.83 µM
TGI (SK-MEL-5 melanoma): 3.29 µM
GI50 (U251 CNS): 2.35 µM
TGI (U251 CNS): 5.83 µM
GI50 (SW-620 colon): 1.84 µM
TGI (SW-620 colon): 3.61 µM
GI50 (EKVX NSCLC): 5.09 µM
TGI (EKVX NSCLC): 19.8 µM
GI50 (HOP-62 NSCLC): 3.96 µM
TGI (HOP-62 NSCLC): 14.2 µM
GI50 (TK-10 renal): 13.7 µM
TGI (TK-10 renal): 27 µM
GI50 (NCI-H460 lung): 2.02 µM
TGI (NCI-H460 lung): 4 µM
GI50 (NCI/ADR-RES ovarian): 16.8 µM
TGI (NCI/ADR-RES ovarian): 35.5 µM
GI50 (SR leukemia): 2.33 µM
TGI (SR leukemia): 7.46 µM
GI50 (HCC-2998 colon): 2.1 µM
TGI (HCC-2998 colon): 5.25 µM
GI50 (MDA-MB-435): 1.86 µM
TGI (MDA-MB-435): 3.57 µM
GI50 (PC-3 prostate): 2.86 µM
TGI (PC-3 prostate): 10.7 µM
GI50 (KM12 colon): 2.85 µM
TGI (KM12 colon): 8.25 µM
GI50 (A549 NSCLC): 5 µM
TGI (A549 NSCLC): 16.3 µM
GI50 (LOX IMVI melanoma): 1.89 µM
TGI (LOX IMVI melanoma): 3.76 µM
GI50 (RXF 393 renal): 1.65 µM
TGI (RXF 393 renal): 3.84 µM
GI50 (HS 578T breast): 2.27 µM
TGI (HS 578T breast): 6.74 µM
GI50 (NCI-H226 lung): 5.37 µM
TGI (NCI-H226 lung): 23.4 µM
GI50 (SF-295 CNS): 2.12 µM
TGI (SF-295 CNS): 5.49 µM
GI50 (HCT-116 colon): 1.69 µM
TGI (HCT-116 colon): 3.2 µM
GI50 (MCF7 breast): 3.02 µM
TGI (MCF7 breast): 13.1 µM
GI50 (COLO 205 colon): 1.89 µM
TGI (COLO 205 colon): 3.89 µM
GI50 (A498 renal): 13.4 µM
TGI (A498 renal): 28.8 µM
GI50 (NCI-H23 lung): 10.1 µM
TGI (NCI-H23 lung): 24.5 µM
GI50 (SK-MEL-2 melanoma): 2.15 µM
TGI (SK-MEL-2 melanoma): 4.86 µM
GI50 (SNB-19 CNS): 4.27 µM
TGI (SNB-19 CNS): 21.5 µM
GI50 (UO-31 renal): 14.7 µM
TGI (UO-31 renal): 30.3 µM
GI50 (HL-60(TB) leukemia): 2.21 µM
TGI (HL-60(TB) leukemia): 4.93 µM
GI50 (OVCAR-4 ovarian): 5.13 µM
TGI (OVCAR-4 ovarian): 19.7 µM
GI50 (SK-OV-3 ovarian): 5.45 µM
TGI (SK-OV-3 ovarian): 17.8 µM
GI50 (T-47D breast): 2.03 µM
TGI (T-47D breast): 4.47 µM
GI50 (SF-539 CNS): 1.85 µM
TGI (SF-539 CNS): 3.52 µM
GI50 (CAKI-1 renal): 14.7 µM
TGI (CAKI-1 renal): 28.4 µM
GI50 (HT29 colon): 2.88 µM
TGI (HT29 colon): 7.5 µM
GI50 (OVCAR-3 ovarian): 2.99 µM
TGI (OVCAR-3 ovarian): 8.77 µM
GI50 (ACHN renal): 12 µM
TGI (ACHN renal): 27.6 µM
GI50 (SN12C renal): 3.05 µM
TGI (SN12C renal): 13.1 µM
GI50 (NCI-H522 lung): 2.24 µM
TGI (NCI-H522 lung): 4.62 µM
GI50 (SK-MEL-28 melanoma): 1.95 µM
TGI (SK-MEL-28 melanoma): 4.18 µM
GI50 (MDA-MB-231 breast): 1.87 µM
TGI (MDA-MB-231 breast): 4.68 µM
GI50 (CCRF-CEM leukemia): 2.94 µM
TGI (CCRF-CEM leukemia): 11.1 µM
GI50 (786-0 renal): 2.08 µM
TGI (786-0 renal): 5.23 µM
GI50 (MOLT-4 leukemia): 2.97 µM
TGI (MOLT-4 leukemia): 10.1 µM
GI50 (HCT-15 colon): 11.9 µM
TGI (HCT-15 colon): 27.5 µM
